Assay results published in patent US20240254564A1, “METHODS FOR PREDICTING AND TREATING CHEMORESISTANCE IN SMALL CELL LUNG CANCER PATIENTS” (MEMORIAL SLOAN-KETTERING CANCER CENTER, priority 2021, published 2024).

Key:
[1] = system: Lx304B ASCL1^high SCLC PDX from chemorelapsed tumor; assay: In vivo treatment, tumor growth of chemorelapsed SCLC PDX Lx304B; conditions: Lx304B PDX in NSG mice; day 24; irinotecan 50 mg/kg i.p. WQ, Selinexor 10 mg/kg p.o. QDx3
Procedure: (§1) For treatments, 5-10 NOD.Cg-Prkd^scid Il2rg^tm1Wjl/SzJ (NSG) mice were engrafted per treatment arm and incubated until they reached 100-150 mm^3. At that point, mice were randomized into groups and treated with either vehicle, Cisplatin (2 mg/kg i.p. once/week), Etoposide (3 mg/kg i.p. QD×3), Selinexor (10 mg/kg p.o. QD×3), irinotecan (50 mg/kg i.p. WQ), or the combinations of cisplatin+etoposide, cisplatin+Selinexor, cisplatin+etoposide+Selinexor or irinotecan+Selinexor, at the previously mentioned doses. Mice weights and tumor volumes were measured twice a week and mice were sacrificed when tumors reached humane endpoint. All animal experiments were approved by the Memorial Sloan Kettering Cancer Center (MSKCC) Animal Care and Use Committee.

[2] = system: Lx1322 non-NE SCLC PDX from chemorelapsed tumor; assay: In vivo treatment, tumor growth of chemorelapsed SCLC PDX Lx1322; conditions: Lx1322 PDX in NSG mice; day 14; irinotecan 50 mg/kg i.p. WQ, Selinexor 10 mg/kg p.o. QDx3
Procedure: as §1

[3] = system: Lx108-R ASCL1^high cisplatin/etoposide-resistant SCLC PDX; assay: In vivo treatment, tumor growth of cisplatin/etoposide-resistant SCLC PDX Lx108-R; set-up: species or system mice; conditions: right after chemotherapy relapse in vivo
Procedure: as §1

[4] = system: AKT/mTOR pathway in H69 and H82 cell lines; assay: Western blot of AKT/mTOR pathway activation; type: cell-based; set-up: concentration or dose not given beside the values; conditions: selinexor or combinations for 7 days
Procedure: FIGS. 9A-9G show impairment of chemotherapy-induced AKT/mTOR overactivation may contribute to selinexor efficacy in combination with chemotherapy. […] Synergy plots, showing the occurrence of synergy, addition, or antagonism (green), were calculated with the HSA method using the SynergyFinder web application (2.0).
(§2) Protein extraction and western blot were performed as previously described in Gardner, E. E. et al., Cancer Cell 31: 286-299 (2017), which is incorporated by reference in its entirety herein. Antibodies for pγH2AX (#39117, Active Motif, Carlsbad, CA), pATR (#53217, Cell Signaling Technology, Danvers, MA, Danvers, MA), ATR (#13934, Cell Signaling Technology, Danvers, MA, Danvers, MA), pATM (#31068, Cell Signaling Technology, Danvers, MA, Danvers, MA), ATM (#2873, Cell Signaling Technology, Danvers, MA, Danvers, MA), pChk2 (#12298, Cell Signaling Technology, Danvers, MA, Danvers, MA), Chk2 (#2662, Cell Signaling Technology, Danvers, MA, Danvers, MA), MSH2 (#2017, Cell Signaling Technology, Danvers, MA, Danvers, MA), MLH1 (#3515, Cell Signaling Technology, Danvers, MA, Danvers, MA), XPO1 (#46249, Cell Signaling Technology, Danvers, MA, Danvers, MA), and actin (#3700, Cell Signaling Technology, Danvers, MA, Danvers, MA). Quantifications were performed with the Image Studio software (Version 3.1, LI-COR Biosciences, Lincoln, NE). Immunohistochemistry for Exportin-1 was performed with the Exportin-1 antibody #611833 from BD in TMAs including resected tumor samples form SCLC and NSCLC patients. All study subjects had provided signed informed consent for biospecimen analyses under an Institutional Review Board-approved protocol.

[5] = system: Lx304 ASCL1^high chemonaive SCLC PDX; assay: In vivo treatment, tumor growth of chemonaive SCLC PDX Lx304; conditions: Lx304 PDX in NSG mice; day 14; cisplatin 2 mg/kg i.p. once/week, etoposide 3 mg/kg i.p. QDx3, Selinexor 10 mg/kg p.o. QDx3
Procedure: as §1

[6] = system: Lx33 NEUROD1^high chemonaive SCLC PDX; assay: In vivo treatment, tumor growth of chemonaive SCLC PDX Lx33; conditions: Lx33 PDX in NSG mice; day 17; cisplatin 2 mg/kg i.p. once/week, etoposide 3 mg/kg i.p. QDx3, Selinexor 10 mg/kg p.o. QDx3
Procedure: as §1

[7] = system: DNA damage response pathways in H82 cells; assay: Western blot of DNA damage sensing and repair proteins; type: cell-based
Procedure: as §2

XPO1-KO (sgXPO1) cells = assay: Selinexor specificity assay: viability of XPO1-expressing and XPO1-KO isogenic cells; type: cell-based; conditions: XPO1-KO isogenic cell line; viability normalized to untreated
From the text: HSA synergy scores for H69 Cisplatin+Selinexor and H69 Cisplatin+KPT-185 are 6.55 and 8.52, respectively. HSA synergy scores for H82 Cisplatin+Selinexor and H82 Cisplatin+KPT-185 are 12.29 and 10.68, respectively. […] The sequence of the sgXPO1 is AACCTGAACGAAATGCCTG (SEQ ID NO: 16). […] Two tailed Student's t-test was used to assess statistical significance of the differential expression between groups. p-values legend: * p<0.05, ** p<0.01, *** p<0.001.

H82 cells = assay: Propidium iodide / annexin V apoptosis assay by flow cytometry; type: cell-based; conditions: GI20 concentrations, 3 days
Procedure: Parental cells were treated with cisplatin (GI20), Selinexor (GI20) or their combination for 3 days. Alternatively, control and XPO1 CRISPR-KO cells were treated with cisplatin […] for 3 days. Then, cells were collected and stained with the APC Annexin V Apoptosis Detection Kit with PI (#640932, Biolegend, San Diego, CA) and apoptosis was analyzed by flow cytometry as previously described in Shrestha, C. L. et al., PLoS One 12: 1-17 (2017).

CCc1c2c(nc3ccc(OC(=O)N4CCC(N5CCCCC5)CC4)cc13)-c1cc3c(c(=O)n1C2)COC(=O)[C@]3(O)CC [irinotecan]
T/C percentage values at control arm endpoint [1]: 23.82% | T/C percentage values at control arm endpoint [2]: 18.09% | T/C percentage at experiment endpoint [3]: 75.27% | phosphorylation of mTOR, AKT and PRAS40 / AKT/mTOR pathway activation (Western blot) [4]: induced

COc1cc([C@@H]2c3cc4c(cc3[C@@H](O[C@@H]3O[C@@H]5CO[C@@H](C)O[C@H]5[C@H](O)[C@H]3O)[C@H]3COC(=O)[C@H]23)OCO4)cc(OC)c1O [etoposide]
T/C percentage values at control group endpoint [5]: 54.59% | T/C percentage values at control arm endpoint [6]: 63.14%

N.N.[Cl][Pt][Cl] [cisplatin]
activation of ATR and ATM (Western blot) ([7]; cisplatin treatment): activated | T/C percentage values at control group endpoint [5]: 67.04% | T/C percentage values at control arm endpoint [6]: 79.73% | phosphorylation of mTOR, AKT and PRAS40 / AKT/mTOR pathway activation (Western blot) [4]: Increased phosphorylation

O=C(/C=C\n1cnc(-c2cc(C(F)(F)F)cc(C(F)(F)F)c2)n1)NNc1cnccn1 [Selinexor]
cell viability after Selinexor treatment in the XPO1-KO cell line (XPO1-KO (sgXPO1) cells): no effect in viability | apoptosis (propidium iodide/annexin V) (H82 cells): increased apoptosis | reduction in the expression of MSH2 and MLH1 (Western blot) ([7]; Selinexor treatment): not observed | T/C percentage values at control group endpoint [5]: 38.52% | T/C percentage values at control arm endpoint [6]: 40.99% | phosphorylation of mTOR, AKT and PRAS40 / AKT/mTOR pathway activation (Western blot) [4]: suppressed
